From patent publication US10010545B1, “Antibiotic compositions and methods of use” (University of South Florida, priority 2013, dated 2018)

What was measured:
Enterococcus faecium = assay: Growth testing against ESKAPE pathogens: Enterococcus faecium; assay type: cell-based; parameters: key: Growth; X: No Growth
Method: (§1) Six analogs (FIG. 2) of the ciprofloxacin-N thiolated β-lactam were successfully synthesized. All these compounds were then tested against ESKAPE pathogens for bioactivity. The ESKAPE pathogens are a collection of six deadly superbugs, Enterococcus faecium, Staphylococcus aureus, Klebsiella pneumoniae, Acinetobacter baumannii, Pseudomonas aeruginosa, and Enterobacter species. […] G denotes growth and X denotes no growth in the tables.

Staphylococcus aureus = assay: Growth testing against ESKAPE pathogens: Staphylococcus aureus; assay type: cell-based; parameters: key to Activity against Staphylococcus aureus (growth observed): Growth; X: No Growth
Method: as §1

Klebesiella pneumonia = assay: Growth testing against ESKAPE pathogens: Klebesiella pneumonia; assay type: cell-based, Klebsiella pneumoniae; parameters: key: Growth; X: No Growth
Method: as §1

Acinetobacter baumannii = assay: Growth testing against ESKAPE pathogens: Acinetobacter baumannii; assay type: cell-based; parameters: key: Growth; X: No Growth
Method: as §1

Pseudomonas aeruginosa = assay: Growth testing against ESKAPE pathogens: Pseudomonas aeruginosa; assay type: cell-based; parameters: key: Growth; X: No Growth
Method: as §1

CCCCCC(=O)N1CCN(c2cc3c(cc2F)c(=O)c(C(=O)OC2C(=O)N(c4ccc(OC)cc4)C2c2ccccc2Cl)cn3C2CC2)CC1 (centres unmarked) [Lactam 128]
G: Activity against Enterococcus faecium (growth observed) (Enterococcus faecium; 1 μg/ml) | Activity against Enterococcus faecium (growth observed) (Enterococcus faecium; 2 μg/ml) | Activity against Enterococcus faecium (growth observed) (Enterococcus faecium; 3 μg/ml) | Activity against Enterococcus faecium (growth observed) (Enterococcus faecium; 4 μg/ml) | Activity against Enterococcus faecium (growth observed) (Enterococcus faecium; 5 μg/ml) | Activity against Enterococcus faecium (growth observed) (Enterococcus faecium; 6 μg/ml) | Activity against Enterococcus faecium (growth observed) (Enterococcus faecium; 7 μg/ml) | Activity against Enterococcus faecium (growth observed) (Enterococcus faecium; 8 μg/ml) | Activity against Enterococcus faecium (growth observed) (Enterococcus faecium; 9 μg/ml) | Activity against Enterococcus faecium (growth observed) (Enterococcus faecium; 10 μg/ml) | Activity against Enterococcus faecium (growth observed) (Enterococcus faecium; 25 μg/ml) | Activity against Staphylococcus aureus (growth observed) (Staphylococcus aureus; 1 μg/ml) | Activity against Staphylococcus aureus (growth observed) (Staphylococcus aureus; 2 μg/ml) | Activity against Staphylococcus aureus (growth observed) (Staphylococcus aureus; 3 μg/ml) | Activity against Staphylococcus aureus (growth observed) (Staphylococcus aureus; 4 μg/ml) | Activity against Staphylococcus aureus (growth observed) (Staphylococcus aureus; 5 μg/ml) | Activity against Staphylococcus aureus (growth observed) (Staphylococcus aureus; 6 μg/ml) | Activity against Staphylococcus aureus (growth observed) (Staphylococcus aureus; 7 μg/ml) | Activity against Staphylococcus aureus (growth observed) (Staphylococcus aureus; 8 μg/ml) | Activity against Staphylococcus aureus (growth observed) (Staphylococcus aureus; 9 μg/ml) | Activity against Staphylococcus aureus (growth observed) (Staphylococcus aureus; 10 μg/ml) | Activity against Staphylococcus aureus (growth observed) (Staphylococcus aureus; 25 μg/ml) | Activity against Klebesiella pneumonia (growth observed) (Klebesiella pneumonia; 1 μg/ml) | Activity against Klebesiella pneumonia (growth observed) (Klebesiella pneumonia; 2 μg/ml) | Activity against Klebesiella pneumonia (growth observed) (Klebesiella pneumonia; 3 μg/ml) | Activity against Klebesiella pneumonia (growth observed) (Klebesiella pneumonia; 4 μg/ml) | Activity against Klebesiella pneumonia (growth observed) (Klebesiella pneumonia; 5 μg/ml) | Activity against Klebesiella pneumonia (growth observed) (Klebesiella pneumonia; 6 μg/ml) | Activity against Klebesiella pneumonia (growth observed) (Klebesiella pneumonia; 7 μg/ml) | Activity against Klebesiella pneumonia (growth observed) (Klebesiella pneumonia; 8 μg/ml) | Activity against Klebesiella pneumonia (growth observed) (Klebesiella pneumonia; 9 μg/ml) | Activity against Klebesiella pneumonia (growth observed) (Klebesiella pneumonia; 10 μg/ml) | Activity against Klebesiella pneumonia (growth observed) (Klebesiella pneumonia; 25 μg/ml) | Activity against Acinetobacter baumannii (growth observed) (Acinetobacter baumannii; 1 μg/ml) | Activity against Acinetobacter baumannii (growth observed) (Acinetobacter baumannii; 2 μg/ml) | Activity against Acinetobacter baumannii (growth observed) (Acinetobacter baumannii; 3 μg/ml) | Activity against Acinetobacter baumannii (growth observed) (Acinetobacter baumannii; 4 μg/ml) | Activity against Acinetobacter baumannii (growth observed) (Acinetobacter baumannii; 5 μg/ml) | Activity against Acinetobacter baumannii (growth observed) (Acinetobacter baumannii; 6 μg/ml) | Activity against Acinetobacter baumannii (growth observed) (Acinetobacter baumannii; 7 μg/ml) | Activity against Acinetobacter baumannii (growth observed) (Acinetobacter baumannii; 8 μg/ml) | Activity against Acinetobacter baumannii (growth observed) (Acinetobacter baumannii; 9 μg/ml) | Activity against Acinetobacter baumannii (growth observed) (Acinetobacter baumannii; 10 μg/ml) | Activity against Acinetobacter baumannii (growth observed) (Acinetobacter baumannii; 25 μg/ml) | Activity against Pseudomonas aeruginosa (growth observed) (Pseudomonas aeruginosa; 1 μg/ml) | Activity against Pseudomonas aeruginosa (growth observed) (Pseudomonas aeruginosa; 2 μg/ml) | Activity against Pseudomonas aeruginosa (growth observed) (Pseudomonas aeruginosa; 3 μg/ml) | Activity against Pseudomonas aeruginosa (growth observed) (Pseudomonas aeruginosa; 4 μg/ml) | Activity against Pseudomonas aeruginosa (growth observed) (Pseudomonas aeruginosa; 5 μg/ml) | Activity against Pseudomonas aeruginosa (growth observed) (Pseudomonas aeruginosa; 6 μg/ml) | Activity against Pseudomonas aeruginosa (growth observed) (Pseudomonas aeruginosa; 7 μg/ml) | Activity against Pseudomonas aeruginosa (growth observed) (Pseudomonas aeruginosa; 8 μg/ml) | Activity against Pseudomonas aeruginosa (growth observed) (Pseudomonas aeruginosa; 9 μg/ml) | Activity against Pseudomonas aeruginosa (growth observed) (Pseudomonas aeruginosa; 10 μg/ml) | Activity against Pseudomonas aeruginosa (growth observed) (Pseudomonas aeruginosa; 25 μg/ml)

CCCCCC(=O)N1CCN(c2cc3c(cc2F)c(=O)c(C(=O)OC2C(=O)N(SC)C2c2ccccc2)cn3C2CC2)CC1 (centres unmarked) [Lactam 126]
G: Activity against Enterococcus faecium (growth observed) (Enterococcus faecium; 1 μg/ml) | Activity against Enterococcus faecium (growth observed) (Enterococcus faecium; 2 μg/ml) | Activity against Enterococcus faecium (growth observed) (Enterococcus faecium; 3 μg/ml) | Activity against Enterococcus faecium (growth observed) (Enterococcus faecium; 4 μg/ml) | Activity against Enterococcus faecium (growth observed) (Enterococcus faecium; 5 μg/ml) | Activity against Enterococcus faecium (growth observed) (Enterococcus faecium; 6 μg/ml) | Activity against Enterococcus faecium (growth observed) (Enterococcus faecium; 7 μg/ml) | Activity against Enterococcus faecium (growth observed) (Enterococcus faecium; 8 μg/ml) | Activity against Enterococcus faecium (growth observed) (Enterococcus faecium; 9 μg/ml) | Activity against Enterococcus faecium (growth observed) (Enterococcus faecium; 10 μg/ml) | Activity against Enterococcus faecium (growth observed) (Enterococcus faecium; 25 μg/ml) | Activity against Staphylococcus aureus (growth observed) (Staphylococcus aureus; 1 μg/ml) | Activity against Staphylococcus aureus (growth observed) (Staphylococcus aureus; 2 μg/ml) | Activity against Staphylococcus aureus (growth observed) (Staphylococcus aureus; 3 μg/ml) | Activity against Staphylococcus aureus (growth observed) (Staphylococcus aureus; 4 μg/ml) | Activity against Staphylococcus aureus (growth observed) (Staphylococcus aureus; 5 μg/ml) | Activity against Staphylococcus aureus (growth observed) (Staphylococcus aureus; 6 μg/ml) | Activity against Staphylococcus aureus (growth observed) (Staphylococcus aureus; 7 μg/ml) | Activity against Staphylococcus aureus (growth observed) (Staphylococcus aureus; 8 μg/ml) | Activity against Staphylococcus aureus (growth observed) (Staphylococcus aureus; 9 μg/ml) | Activity against Staphylococcus aureus (growth observed) (Staphylococcus aureus; 10 μg/ml) | Activity against Staphylococcus aureus (growth observed) (Staphylococcus aureus; 25 μg/ml) | Activity against Klebesiella pneumonia (growth observed) (Klebesiella pneumonia; 1 μg/ml) | Activity against Klebesiella pneumonia (growth observed) (Klebesiella pneumonia; 2 μg/ml) | Activity against Klebesiella pneumonia (growth observed) (Klebesiella pneumonia; 3 μg/ml) | Activity against Klebesiella pneumonia (growth observed) (Klebesiella pneumonia; 4 μg/ml) | Activity against Klebesiella pneumonia (growth observed) (Klebesiella pneumonia; 5 μg/ml) | Activity against Klebesiella pneumonia (growth observed) (Klebesiella pneumonia; 6 μg/ml) | Activity against Klebesiella pneumonia (growth observed) (Klebesiella pneumonia; 7 μg/ml) | Activity against Klebesiella pneumonia (growth observed) (Klebesiella pneumonia; 8 μg/ml) | Activity against Klebesiella pneumonia (growth observed) (Klebesiella pneumonia; 9 μg/ml) | Activity against Klebesiella pneumonia (growth observed) (Klebesiella pneumonia; 10 μg/ml) | Activity against Klebesiella pneumonia (growth observed) (Klebesiella pneumonia; 25 μg/ml) | Activity against Acinetobacter baumannii (growth observed) (Acinetobacter baumannii; 1 μg/ml) | Activity against Acinetobacter baumannii (growth observed) (Acinetobacter baumannii; 2 μg/ml) | Activity against Acinetobacter baumannii (growth observed) (Acinetobacter baumannii; 3 μg/ml) | Activity against Acinetobacter baumannii (growth observed) (Acinetobacter baumannii; 4 μg/ml) | Activity against Acinetobacter baumannii (growth observed) (Acinetobacter baumannii; 5 μg/ml) | Activity against Acinetobacter baumannii (growth observed) (Acinetobacter baumannii; 6 μg/ml) | Activity against Acinetobacter baumannii (growth observed) (Acinetobacter baumannii; 7 μg/ml) | Activity against Acinetobacter baumannii (growth observed) (Acinetobacter baumannii; 8 μg/ml) | Activity against Acinetobacter baumannii (growth observed) (Acinetobacter baumannii; 9 μg/ml) | Activity against Acinetobacter baumannii (growth observed) (Acinetobacter baumannii; 10 μg/ml) | Activity against Acinetobacter baumannii (growth observed) (Acinetobacter baumannii; 25 μg/ml) | Activity against Pseudomonas aeruginosa (growth observed) (Pseudomonas aeruginosa; 1 μg/ml) | Activity against Pseudomonas aeruginosa (growth observed) (Pseudomonas aeruginosa; 2 μg/ml) | Activity against Pseudomonas aeruginosa (growth observed) (Pseudomonas aeruginosa; 3 μg/ml) | Activity against Pseudomonas aeruginosa (growth observed) (Pseudomonas aeruginosa; 4 μg/ml) | Activity against Pseudomonas aeruginosa (growth observed) (Pseudomonas aeruginosa; 5 μg/ml) | Activity against Pseudomonas aeruginosa (growth observed) (Pseudomonas aeruginosa; 6 μg/ml) | Activity against Pseudomonas aeruginosa (growth observed) (Pseudomonas aeruginosa; 7 μg/ml) | Activity against Pseudomonas aeruginosa (growth observed) (Pseudomonas aeruginosa; 8 μg/ml) | Activity against Pseudomonas aeruginosa (growth observed) (Pseudomonas aeruginosa; 9 μg/ml) | Activity against Pseudomonas aeruginosa (growth observed) (Pseudomonas aeruginosa; 10 μg/ml) | Activity against Pseudomonas aeruginosa (growth observed) (Pseudomonas aeruginosa; 25 μg/ml)
